The target in one data set is T1, Aurora A kinase and TPX2 (Homo sapiens, UniProt O14965, T288V).
T1 construct: 1 μM A^122-403 T288V, 100 μM TPX2^1-45 and 1 mM kemptide was used
T1 sequence (O14965 122-403 T288V): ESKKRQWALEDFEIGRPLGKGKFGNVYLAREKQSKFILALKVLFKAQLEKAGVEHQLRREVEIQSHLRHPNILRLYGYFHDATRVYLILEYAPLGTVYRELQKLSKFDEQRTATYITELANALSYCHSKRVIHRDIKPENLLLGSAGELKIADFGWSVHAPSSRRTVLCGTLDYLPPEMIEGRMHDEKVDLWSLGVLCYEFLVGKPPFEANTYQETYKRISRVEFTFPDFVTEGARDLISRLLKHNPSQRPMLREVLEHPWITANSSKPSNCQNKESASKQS
Kind of data set: Kemptide phosphorylation by dephosphorylated Aurora A kinase and TPX2 with increasing PS48 (TPX2 competition). The format is biochemical. The settings on record: 1 μM A122-403 T288V, 100 μM TPX2 1-45, 1 mM kemptide; FIGS. 28A-28B. As for the experimental part: FIGS. 28A-28B is a set of plots showing PS48 binds to the TPX2 binding site of Aurora A kinase and PS48 competes with TPX2 for binding to Aurora A kinase in vitro. FIG. 28A is a plot showing measurements of phosphorylation of kemptide (a peptide substrate for Aurora A kinase) when incubated with dephosphorylated Aurora A kinase and TPX2 and various increasing amounts of PS48. […] In the assays shown, 1 μM A^122-403 T288V, 100 μM TPX2^1-45 and 1 mM kemptide was used.
Aurora A, either phosphorylated/dephosphorylated wild type or mutant protein, was mixed with either AP ([…]) (SEQ ID NO: 5), Kemptide (LRRASLG) (SEQ ID NO: 6), or Lats2 ([…]) (SEQ ID NO: 7), in the absence or presence of 50 μM TPX2 in kinase buffer (20 mM TrisHCl, 200 mM NaCl, 3% [vol/vol] glycerol, 20 mM MgCl2, 1 mM TCEP, pH 7.50). These substrates comprise the consensus sequence for Aurora A ([R/K/N]—R—X—[S/T]-B where B is any hydrophobic residue with the exception of Pro) (Ferrari et al., 2005, Biochem. J., 390(Pt 1):293-302; Ohashi et al., 2006, Oncogene, 25:7691-7702; Sardon et al., 2010, EMBO Reports, 11:977-984). Peptides were ordered through Genscript. For HPLC-based activity assays the following protocol was used. The reaction was initiated with the addition of 5 mM ATP. […]

Data set [1] deals with T2, ATP-binding site of Aurora A kinase (Homo sapiens, UniProt O14965).
T2 construct: Codon-optimized Aurora A^122-403 in pET28a and untagged λPP in T7-7 plasmid were co-transformed in BL21(DE3) cells; inferred from pET28a and the NiNTA column) (cleaved yes); made in house; host or cells: E. coli BL21(DE3), co-expressed with lambda protein phosphatase
T2 sequence (O14965 122-403): T1 sequence (O14965 122-403 T288V) with V167T
Briefly: TNP-ATP fluorescence titration of dephosphorylated Aurora A kinase with or without PS48. Particulars: FIGS. 24-26. The method, then:
TNP-ATP is excited at a wavelength of 479 nm and fluoresces at 500-600 nm. FIG. 26B is a plot showing an emission spectrum of TNP-ATP. FIG. 26C is a plot showing fluorescence spectroscopy of dephosphorylated Aurora A kinase incubated with varying amounts of TNP-ATP. FIG. 26D is a plot showing fluorescence spectroscopy of dephosphorylated Aurora A kinase and PS48 incubated with varying amounts of TNP-ATP. FIG. 26E is a plot showing fluorescence intensities measured during titration of TNP-ATP in the Aurora A kinase and PS48 sample and Aurora A kinase only sample. The dissociation constant of TNP-ATP binding to Aurora A kinase in the absence and presence of PS48 is shown at the bottom of FIG. 26E.

For data set [2], the target named is T3, TPX2 binding site of Aurora A kinase (Homo sapiens, UniProt O14965).
T3 construct: Codon-optimized Aurora A^122-403 in pET28a and untagged λPP in T7-7 plasmid were co-transformed in BL21(DE3) cells; inferred from pET28a and the NiNTA column) (cleaved yes); made in house; host or cells: E. coli BL21(DE3) (Aurora A); TPX2 not described
T3 sequence (O14965 122-403): T1 sequence (O14965 122-403 T288V) with V167T
Kind of data set: NMR titration (1H-15N HSQC) of TPX2, Aurora A and PS48. Particulars: FIGS. 27A-27C. The method, then: FIGS. 27A-27C is a set of plots showing results of NMR titration showing that PS48 binds to the TPX2 binding site of Aurora A kinase. FIG. 27A is a plot showing ^1H-^15N heteronuclear single quantum coherence (HSQC) spectra of selected titration points (250 μM TPX2, 250 μM TPX2+100 μM Aurora A, and 250 μM TPX2+100 μM Aurora A+1.5 mM PS48). A magnified view showing separation of peaks is indicated by an arrow. FIG. 27B is a plot showing changes in chemical shift (Δδ) at 200 μM TPX2 and varying concentrations of Aurora A. FIG. 27C is a plot showing changes in chemical shift (Δδ) at 200 μM TPX2 and 100 μM Aurora A and varying concentrations of PS48.

A short description of data set [3]: Stability of PS48 at very high concentrations. Format: physicochemical.

Substitutions are numbered along the chain they refer to. Entries after “also recorded” stand apart in the source; their conditions may differ.

Consider `O=C(O)/C=C(/CCc1ccc(Cl)cc1)c1ccccc1` [PS48], for which the “effect of PS48 on kinase activity of Aurora A incubated with TPX2” value on Aurora A kinase and TPX2 is on record as “inhibits kinase activity by competing off TPX2 binding; also recorded: disrupting binding of TPX2 to Aurora A kinase”. Also, the “effect of PS48 on the ATP binding site of Aurora A kinase (TNP-ATP binding)” value in data set [1] is listed as “does not affect binding of TNP-ATP; also recorded: does not bind to the ATP binding site”. The “binding site of PS48 on Aurora A kinase” value in data set [2] is listed as “bound to the TPX2 binding site of Aurora A kinase”. Further, the “stability of PS48” value in data set [3] is “not stable”.
